Each structure is given as a SMILES string. Read-outs that look alike come from different tables or passages of the source.

Assay in all cases: Postemergence herbicide evaluation, percent reduction in plant size vs untreated control, 21 days after treatment
For experiment [1], the system named is Amaranthus palmeri (AMAPA). The experiment is classed as in vivo, Amaranthus palmeri (Palmer amaranth). Conditions: post-emergence, 504 h, postemergence, read-out: Control/Injury; for pest or weed control at 140 g/ha: rate 140 g ae/ha; for pest or weed control at 280 g/ha: rate 280 g ae/ha. On the procedure:
(§1) Plants were grown in a soil media composed of 90% by volume Promix BX (Premier Tech Horticulture, Quakertown, PA) and 10% Profile Greens Grade (Profile Products LLC, Buffalo Grove, IL). Promix BX contains approximately 83% Sphagnum Peat Moss, 13% Perlite, 5% vermiculite, and proprietary amounts of limestone, starter fertilizer, and wetting agent. Profile Greens Grade is a sand-sized granule formed from calcining illite and montmorillonite clay. Several seeds of each species were planted in 10 cm square pots and top watered twice daily. Plant material was propagated in a warm greenhouse with temperature ranging from 25 to 28° C. and 50 to 60% relative humidity at the Corteva Global Headquarters (Indianapolis, Indiana, USA). Natural light was supplemented with 1000-watt metal halide overhead lamps with an average illumination of 500 μE m^−2 s^−1 photosynthetic active radiation for 16 consecutive hours each day. Plants were top-watered prior to herbicide application and sub-watered after herbicide application.
(§2) Appropriate amounts of test materials were weighed out into glass vials in their technical form to deliver either 140 or 280 g acid equivalent (ae)/ha. The samples were dissolved in 3 ml of Solvent 1. Solvent 1 is 97% acetone and 3% dimethyl sulfoxide and serves as a general-purpose solvent (GPS) for dissolving technical materials. […] The samples were then diluted to their final concentration using 17 ml of solvent 2 for a total of 20 ml of spray solution. Solvent 2 contains 41.58% GPS, 45.53% water, 11.88% isopropyl alcohol, 0.99% crop oil concentrate and 0.02% Trition X-155 surfactant. All percentages are listed on a volume basis. Dicamba diglycolamine was applied as a formulated herbicide, Clarity™ and diluted with solvent 2 to compare all materials in the same spray solution.
(§3) Herbicide applications were made to 3 to 4 replicates of each plant species at the 2 to 8 leaf stage, depending on the species. Treatments were applied with a research track-sprayer (Generation III Research Sprayer manufactured by DeVries Manufacturing in Hollandale, MN, USA) calibrated to deliver a spray volume of 187 L/ha. The track-sprayer was fitted with an 8003E nozzle from Spray Systems Company (North Avenue and Schmale Road, P.O. Box 7900, Wheaton, IL 60187), and used a spray pressure of 276 kPa pressure and a speed of 3.1 km/h. The nozzle height was 46 cm above the plant canopy. The experimental design used for the trials was a randomized complete block with 3 or 4 replications per treatment. After application, plants were placed on carts according to the randomization and returned to the greenhouse. Plants were sub-watered after treatment with Indianapolis city water or fertilized three times a week with a commercial fertilizer solution (Jack's Professional 15-5-15 4 Ca 2 Mg fertilizer (manufactured by JR PETERS INC., 6656 Grant Way, Allentown, PA 18106; www.jrpeters.com). Percent visual control assessments were made on a scale of 0 to 100% (where 0 was no control and 100 was complete plant death) at 7, 14, and 21 days after treatment.
In conformity with the methods outlined in Example 49, the effect of representative experimental compounds on the growth of Amaranthus palmeri (AMAPA), common name, Palmer amaranth, was determined at 2 different levels (respectively, 140 and 280 g acid equivalent (ae)/ha) of the experimental actives tested. Plants were treated with one of the compounds, a control plant was not treated. Twenty-one days after treatment, the plants were measured. The data is present as a percent reduction in plant size relative to the untreated control.

The subject of another experiment is Kochia scoparia (KCHSC). Type of experiment: in vivo. To be noted: Bassia scoparia, post-emergence, 504 h, KCHSC, postemergence, read-out: Control/Injury; for pest or weed control at 140 g/ha: rate 140 g ae/ha; for pest or weed control at 280 g/ha: rate 280 g ae/ha. The procedure: as §1, §2, §3
In conformity with the methods outlined in Example 49, the effect of representative experimental compounds on the growth of Kochia scoparia (KCHSC) was determined at 2 different levels (respectively, 140 and 280 g acid equivalent (ae)/ha) of the experimental actives tested. Plants were treated with one of the compounds, a control plant was not treated. Twenty-one days after treatment, the plants were measured. The data is present as a percent reduction in plant size relative to the untreated control.

For the next experiment, the system named is Amaranthus rudis (AMATA). The experiment is classed as in vivo, Amaranthus rudis (tall water hemp). Conditions: Amaranthus tuberculatus, post-emergence, 504 h, AMATA, postemergence, read-out: Control/Injury; for pest or weed control at 140 g/ha: rate 140 g ae/ha; for pest or weed control at 280 g/ha: rate 280 g ae/ha. The procedure: as §1, §2, §3
In conformity with the methods outlined in Example 49, the effect of representative experimental compounds on the growth of Amaranthus rudis (AMATA), common name tall water hemp, was determined at 2 different levels (respectively, 140 and 280 g acid equivalent (ae)/ha) of the experimental actives tested. Plants were treated with one of the compounds, a control plant was not treated. Twenty-one days after treatment, the plants were measured. The data is present as a percent reduction in plant size relative to the untreated control.

Experiment [2] concerns Ambrosia artemisiifolia (AMBEL). Type of experiment: in vivo, Ambrosia artemisiifolia (common ragweed). Conditions: post-emergence, 504 h, AMBEL, postemergence, read-out: Control/Injury; for pest or weed control at 140 g/ha: rate 140 g ae/ha; for pest or weed control at 280 g/ha: rate 280 g ae/ha. On the procedure:
as §1, §2, §3
In conformity with the methods outlined in Example 49, the effect of representative experimental compounds on the growth of Ambrosia artemisiifolia (AMBEL), (common ragweed), was determined at 2 different levels (respectively, 140 and 280 g acid equivalent (ae)/ha) of the experimental actives tested. Plants were treated with one of the compounds, a control plant was not treated. Twenty-one days after treatment, the plants were measured. The data is present as a percent reduction in plant size relative to the untreated control.

The subject of experiment [3] is Conyza canadensis (L.) (ERICA). Type of experiment: in vivo, Conyza canadensis (L.) (Horseweed). To be noted: Erigeron canadensis, post-emergence, 504 h, ERICA, postemergence, read-out: Control/Injury; for pest or weed control at 140 g/ha: rate 140 g ae/ha; for pest or weed control at 280 g/ha: rate 280 g ae/ha. On the procedure:
as §1, §2, §3
In conformity with the methods outlined in Example 49, the effect of representative experimental compounds on the growth of Conyza canadensis (L.), (ERICA), common name, Horseweed, was determined at 2 different levels (respectively, 140 and 280 g acid equivalent (ae)/ha) of the experimental actives tested. Plants were treated with one of the compounds, a control plant was not treated. Twenty-one days after treatment, the plants were measured. The data is present as a percent reduction in plant size relative to the untreated control.

The mark [4] stands for this setting: percent reduction vs untreated, 21 days after treatment.
Setting [5] is: R-AMAPA, percent reduction vs untreated control, 21 days after treatment.
[6] abbreviates: percent reduction vs untreated control, 21 days after treatment.

Turning to `COc1c(Cl)ccc(Cl)c1C(=O)n1cnc2ccccc21` [Compound A-115], the pest or weed control at 140 g/ha came to 20% in experiment [1] (AMAPA); 8% in the experiment with Kochia scoparia (KCHSC) (setting [4]); 15% in the experiment on Amaranthus rudis (AMATA); 5% in experiment [2]; 3% in experiment [3]. Also, the pest or weed control at 280 g/ha in experiment [1] (AMAPA) amounted to 38%; in the experiment with Kochia scoparia (KCHSC) (setting [4]), 13%; in the experiment with Amaranthus rudis (AMATA), 38%; in experiment [2], 28%; in experiment [3] it was 13%.
For `COc1c(Cl)ccc(Cl)c1C(=O)n1nc(C)cc1C` [Compound A-133], the pest or weed control at 140 g/ha in experiment [1] (AMAPA) was 10%; in the experiment with Kochia scoparia (KCHSC) (setting [4]) it was 0%; with Amaranthus rudis (AMATA), 8%; in experiment [2], 3%; in experiment [3] (setting [4]), 3%. Besides, the pest or weed control at 280 g/ha in experiment [1] (AMAPA) is 15%; in the experiment with Kochia scoparia (KCHSC) (setting [4]) it was 20%; in the experiment on Amaranthus rudis (AMATA) it was 5%; in experiment [2] it was 8%; in experiment [3] (setting [4]), 3%.
Consider `COc1c(Cl)ccc(Cl)c1C(=O)Oc1ncn(-c2ccccc2)n1` [Compound A-121], for which the pest or weed control at 140 g/ha in experiment [1] (AMAPA) came out at 75%; in the experiment with Kochia scoparia (KCHSC) (setting [4]), 83%; with Amaranthus rudis (AMATA), 75%; in experiment [2], 88%; in experiment [3], 97%. In addition, the pest or weed control at 280 g/ha was 85% in experiment [1] (AMAPA); 96% in the experiment with Kochia scoparia (KCHSC) (setting [4]); 94% in the experiment on Amaranthus rudis (AMATA); 98% in experiment [2]; 99% in experiment [3].
Consider `COc1c(Cl)ccc(Cl)c1C(=O)NN1CCOCC1` [Compound A-127], for which the pest or weed control at 140 g/ha was 20% in experiment [1] (AMAPA); 3% in the experiment with Kochia scoparia (KCHSC) (setting [4]); 30% in the experiment with Amaranthus rudis (AMATA); 30% in experiment [2]; 18% in experiment [3]. Besides, the pest or weed control at 280 g/ha in experiment [1] (AMAPA) was 23%; with Kochia scoparia (KCHSC) (setting [4]), 5%; with Amaranthus rudis (AMATA), 35%; in experiment [2], 63%; in experiment [3] it was 13%.
Regarding `COc1c(Cl)ccc(Cl)c1C(=O)NNc1ccccc1` [Compound A-131], the pest or weed control at 140 g/ha in experiment [1] (AMAPA) came out at 23%; in the experiment on Kochia scoparia (KCHSC) (setting [4]), 30%; in the experiment on Amaranthus rudis (AMATA) it was 40%; in experiment [2], 48%; in experiment [3], 28%. Further, the pest or weed control at 280 g/ha in experiment [1] (AMAPA) stood at 38%; in the experiment with Kochia scoparia (KCHSC) (setting [4]) it was 38%; with Amaranthus rudis (AMATA) it was 30%; in experiment [2], 58%; in experiment [3] it was 30%.
Turning to `COc1c(Cl)ccc(Cl)c1C(=O)Nc1ccon1` [Compound A-106], the pest or weed control at 140 g/ha was determined as 25% in experiment [1] (AMAPA); 3% in the experiment on Kochia scoparia (KCHSC) (setting [4]); 25% with Amaranthus rudis (AMATA); 25% in experiment [2]; 5% in experiment [3]. Moreover, the pest or weed control at 280 g/ha was found to be 20% in experiment [1] (AMAPA); 3% with Kochia scoparia (KCHSC) (setting [4]); 28% in the experiment with Amaranthus rudis (AMATA); 28% in experiment [2]; 10% in experiment [3].
Regarding `COc1c(Cl)ccc(Cl)c1C(=O)N1CCOCC1` [Compound A-65], the pest or weed control at 140 g/ha amounted to 33% in experiment [1] (setting [5]); 28% with Kochia scoparia (KCHSC); 15% in the experiment on Amaranthus rudis (AMATA); 40% in experiment [2]; 8% in experiment [3] (setting [6]). Further, the pest or weed control at 280 g/ha in experiment [1] (setting [5]) is 33%; with Kochia scoparia (KCHSC) it was 37%; in the experiment with Amaranthus rudis (AMATA), 23%; in experiment [2], 55%; in experiment [3] (setting [6]), 28%.
As to `CCN(CC)C(=O)c1c(Cl)ccc(Cl)c1OC` [Compound A-107], the pest or weed control at 140 g/ha was 9% in experiment [1] (AMAPA); 0% in the experiment on Kochia scoparia (KCHSC) (setting [4]); 2% with Amaranthus rudis (AMATA); 10% in experiment [2]; 3% in experiment [3]. The pest or weed control at 280 g/ha in experiment [1] (AMAPA) worked out at 18%; in the experiment on Kochia scoparia (KCHSC) (setting [4]), 0%; in the experiment with Amaranthus rudis (AMATA), 18%; in experiment [2] it was 18%; in experiment [3] it was 5%.

The values are drawn from patent US20240122179A1, “AUXINIC HERBICIDES AND METHODS OF USE THEREOF” (CORTEVA AGRISCIENCE LLC, priority 2021, published 2024).
